Measured values published in US20240051968A1, “METHODS FOR TREATING SPINOCEREBELLAR ATAXIA TYPE 3” (PTC Therapeutics, Inc., priority 2021, published 2024).
pIC50: −log10 of the molar value.

Legend:
[1] = test system: Total ATXN3 (tATXN3) protein; assay: Endogenous Total ATXN3 (tATXN3) Protein Assay (MSD immunoassay of cell lysates); type: cell-based; conditions: cells incubated with compound 48 h; 7-point concentration curve; MSD detection in cell lysate
Method: Endogenous Total ATXN3 (tATXN3) Protein Assay
Meso Scale Discovery (MSD) 96-well or 384-well plates were coated overnight at 4° C. with Ataxin 3 mouse monoclonal antibody (Invitrogen, MA3-082) at a concentration of 0.5 μg/mL in PBS (30 μL per well). Plates were then washed three times with 300 μL wash buffer (0.05% TWEEN®-20, polyethylene glycol sorbitan monolaurate, in PBS) and blocked (Meso Scale Diagnostics, R93BA-1; 5% BSA in PBS) for 2 h at room temperature with rotational shaking and then washed three times with wash buffer.
(§1) Test compounds were serially diluted 3.16-fold in 100% DMSO to generate a 7-point concentration curve. Aliquots of 0.5 μL of diluted compounds were transferred to a 96-well flat bottom plate by a liquid handler. An aliquot of 0.5 μL DMSO was also transferred to separate wells and used as controls. Duplicate samples were set up for each compound concentration and for the DMSO control.
Cells were thawed and incubated in cell culture media (DMEM, 10% FBS, and 1% antibiotic cocktail) for 72 h. Cells were trypsinized, counted, and re-suspended to a concentration of 100,000 cells/mL in cell culture media. A 100 μL aliquot of the cell suspensions were plated at 10,000 cells per well in the compound containing 96 well microtiter plate and incubated for in a cell culture incubator (37° C., 5% CO2, 100% relative humidity). After 48 h, the medium was removed and 50-100 μL of lysis buffer (Meso Scale Diagnostics, R60TX-2) containing 1× halt protease inhibitor cocktail of (Thermo Scientific, Halt™ Protease Inhibitor Cocktail, 78430) per well was added to cells to provide a “cell lysate”. The plate was placed on a shaker at 4° C. for 30 minutes, then stored at −80° C.
Cell lysate samples (25 μL) were transferred to the antibody-coated MSD plate and incubated overnight at 4° C. After removal of the lysates, the plate was washed three times with wash buffer, and 25 μL of Ataxin 3 recombinant rabbit monoclonal antibody (Invitrogen, #702788) secondary antibody (diluted to 0.25 μg/mL in 0.05% TWEEN®-20 in blocking buffer) was added to each well and incubated with shaking for 1-2 h at room temperature. Following incubation with the secondary antibody, the wells were rinsed with wash buffer and then […] Anti Rabbit Antibody Goat SULFO-TAG Labeled (Meso Scale Diagnostics, R32AB-1) detecting antibody (diluted to 0.25 μg/mL in 0.05% TWEEN®-20 in blocking buffer) was added to each well and incubated with shaking for 1 h at room temperature. After rinsing three times with wash buffer, 150 μL of Read Buffer T with surfactant (tris-based buffer containing tripropylamine, Meso Scale Diagnostics, R92TC-1) were added to each empty well, and the plate was imaged on a SI 6000 imager (MSD) according to manufacturers' instructions provided for 96- or 384-well plates.

ATXN3 pre-mRNA = assay: RT-qPCR Assay to Quantify Exon 4 Skipping in ATXN3 pre-mRNA in Cells; type: cell-based; conditions: cells incubated with compound 24 h, 7-point concentration curve, GAPDH control
Method: as §1, with “RT-qPCR Assay to Quantify Exon 4 Skipping in ATXN3 pre-mRNA in Cells Test” for “Test”
Cells were thawed and incubated in cell culture media (DMEM, 10% FBS, and 1% antibiotic cocktail) for 72 h. Cells were trypsinized, counted, and re-suspended to a concentration of 100,000 cells/mL in cell culture media. A 100 μL aliquot of the cell suspensions were plated at 10,000 cells per well in the compound containing 96 well microtiter plate and incubated for in a cell culture incubator (37° C., 5% CO2, 100% relative humidity).
After 24 h, media was aspirated from the cells and 50 μL of the RCL2 lysis buffer (10 mM Tris-HCL pH 7.4, 150 mM NaCl, 0.33% IGEPAL® CA-630) was added to each well and incubated at room temperature for 1 min. Chilled nuclease free water (50 μL per well) was added and the plates were immediately transferred on ice. After 1 min on ice, plates were frozen at −80° C. overnight.
Preparation of RT-qPCR Reaction Mixture:
An aliquot of 2 μL/well of the cell lysates was transferred using the liquid handler to the Armadillo 384-Well PCR plate containing 8 μL/well of the RT-qPCR reaction mixture that was prepared as detailed above. The plates were then sealed with MicroAmp™ Optical Adhesive Film followed by spinning down for 1 min and placed in the CFX384 thermocycler (BioRad).
The RT-qPCR was carried out at the following temperatures for the indicated time: • Step 1: 48° C. (30 min) • Step 2: 95° C. (10 min) • Step 3: 95° C. (15 sec) • Step 4: 60° C. (1 min); then, repeated Steps 3 and 4 for a total of 40 cycles.
The percent exon 4 skipping was calculated for each dose of compound treatment using Equations 1 and 2.
Data were fit to a dose response curve and the IC50 was interpolated using XLfit® statistical and curve fitting package.
An IC50 value between >2.0 μM and ≤3.0 μM is indicated by one star (*). […] IC50 value between >0.5 μM and ≤1.0 μM is indicated by four stars (****). An IC50 value ≤0.5 μM is indicated by five stars (*****).

| pIC50 [1] | pIC50 (ATXN3 pre-mRNA) | IC50 (average), total ATXN3 protein [1] | IC50, exon 4 skipping in ATXN3 pre-mRNA (ATXN3 pre-mRNA) | SMILES |
| --- | --- | --- | --- | --- |
| ≥ 6.30 | ≥ 6.30 |  |  | Cc1c(C[C@@H](N)CO)sc2c(NCc3ccco3)cc(Cl)nc12 [Cpd 58, (2R)-2-amino-3-(5-chloro-7-{[(furan-2-yl)methyl]amino}-3-methylthieno[3,2-b]pyridin-2-yl)propan-1-ol] |
| ≥ 6.30 | ≥ 6.30 |  |  | N[C@@H](CF)Cc1sc2c(NCc3cccs3)cc(Cl)nc2c1Cl [Cpd 84, 2-[(2R)-2-amino-3-fluoropropyl]-3,5-dichloro-N-[(thiophen-2-yl)methyl]thieno[3,2-b]pyridin-7-amine] |
| ≥ 6.30 | ≥ 6.30 |  |  | N[C@@H](CO)Cc1sc2c(NCc3ccco3)cc(Cl)nc2c1Br [Cpd 41, (2R)-2-amino-3-(3-bromo-5-chloro-7-{[(furan-2-yl)methyl]amino}thieno[3,2-b]pyridin-2-yl)propan-1-ol] |
| ≥ 6.30 | ≥ 6.30 |  |  | N[C@@H](CF)Cc1sc2c(NCc3cccs3)cc(Cl)nc2c1Br [Cpd 76, 2-[(2R)-2-amino-3-fluoropropyl]-3-bromo-5-chloro-N-[(thiophen-2-yl)methyl]thieno[3,2-b]pyridin-7-amine] |
| 6.00 to 6.30 | ≥ 6.30 |  |  | C[C@H](N)C(F)c1sc2c(NCc3nccs3)cc(Cl)nc2c1Br (stereo partly drawn) [Cpd 161, 2-[(2S)-2-amino-1-fluoropropyl]-3-bromo-5-chloro-N-[(1,3-thiazol-2-yl)methyl]thieno[3,2-b]pyridin-7-amine] |
| ≥ 6.30 | ≥ 6.30 |  |  | Cc1c(C[C@@H](N)CCF)sc2c(NCc3ccco3)cc(Cl)nc12 [Cpd 95, 2-[(2S)-2-amino-4-fluorobutyl]-5-chloro-N-[(furan-2-yl)methyl]-3-methylthieno[3,2-b]pyridin-7-amine] |
| ≥ 6.30 | ≥ 6.30 |  |  | C[C@H](N)C(O)c1sc2c(NCc3cccs3)cc(Cl)nc2c1Cl (stereo partly drawn) [Cpd 127, (2S)-2-amino-1-(3,5-dichloro-7-{[(thiophen-2-yl)methyl]amino}thieno[3,2-b]pyridin-2-yl)propan-1-ol] |
| ≥ 6.30 | ≥ 6.30 |  |  | CSC[C@H](N)Cc1sc2c(NCc3ccco3)cc(Cl)nc2c1Cl [Cpd 114, 2-[(2R)-2-amino-3-(methylsulfanyl)propyl]-3,5-dichloro-N-[(furan-2-yl)methyl]thieno[3,2-b]pyridin-7-amine] |
| ≥ 6.30 | ≥ 6.30 |  |  | N[C@@H](CO)Cc1cc2nc(Cl)cc(NCc3ccco3)c2s1 [Cpd 17, (2R)-2-amino-3-(5-chloro-7-{[(furan-2-yl)methyl]amino}thieno[3,2-b]pyridin-2-yl)propan-1-ol] |
| ≥ 6.30 | ≥ 6.30 |  |  | Cc1c(C[C@@H](N)CC(C)C)sc2c(NCc3cccs3)cc(Cl)nc12 [Cpd 61, 2-[(2S)-2-amino-4-methylpentyl]-5-chloro-3-methyl-N-[(thiophen-2-yl)methyl]thieno[3,2-b]pyridin-7-amine] |
| ≥ 6.30 | ≥ 6.30 |  |  | N[C@@H](CF)Cc1sc2c(NCc3ccco3)cc(Cl)nc2c1Cl [Cpd 94, 2-[(2R)-2-amino-3-fluoropropyl]-3,5-dichloro-N-[(furan-2-yl)methyl]thieno[3,2-b]pyridin-7-amine] |
| 6.00 to 6.30 | 6.00 to 6.30 |  |  | N[C@@H](COC(F)(F)F)Cc1sc2c(NCc3nccs3)cc(Cl)nc2c1Br [Cpd 64, 2-[(2R)-2-amino-3-(trifluoromethoxy)propyl]-3-bromo-5-chloro-N-[(1,3-thiazol-2-yl)methyl]thieno[3,2-b]pyridin-7-amine] |
| ≥ 6.30 | ≥ 6.30 |  |  | CSC[C@H](N)Cc1sc2c(NCc3ccco3)cc(Cl)nc2c1C [Cpd 104, 2-[(2R)-2-amino-3-(methylsulfanyl)propyl]-5-chloro-N-[(furan-2-yl)methyl]-3-methylthieno[3,2-b]pyridin-7-amine] |
| ≥ 6.30 | ≥ 6.30 |  |  | COC[C@H](N)Cc1sc2c(NCc3ccco3)cc(Cl)nc2c1Cl [Cpd 40, 2-[(2R)-2-amino-3-methoxypropyl]-3,5-dichloro-N-[(furan-2-yl)methyl]thieno[3,2-b]pyridin-7-amine] |
|  |  | inactive | inactive | Cc1c(C[C@H](N)CF)sc2c(NCc3ccco3)cc(Cl)nc12 [Cpd 59, 2-[(2S)-2-amino-3-fluoropropyl]-5-chloro-N-[(furan-2-yl)methyl]-3-methylthieno[3,2-b]pyridin-7-amine] |
| 5.82 to 6.00 | 5.82 to 6.00 |  |  | Cc1c(C[C@@H](N)C(=O)N(C)c2ccccc2)sc2c(NCc3ccco3)cc(Cl)nc12 [Cpd 141, 3-(5-chloro-7-{[(furan-2-yl)methyl]amino}-3-methylthieno[3,2-b]pyridin-2-yl)-N-methyl-N-phenyl-D-alaninamide] |
| ≥ 6.30 | ≥ 6.30 |  |  | CS(=O)(=O)C[C@H](N)Cc1sc2c(NCc3ccco3)cc(Cl)nc2c1Cl [Cpd 113, 2-[(2R)-2-amino-3-(methanesulfonyl)propyl]-3,5-dichloro-N-[(furan-2-yl)methyl]thieno[3,2-b]pyridin-7-amine] |
| ≥ 6.30 | ≥ 6.30 |  |  | Cc1c(C[C@@H](N)CCF)sc2c(NCc3cccs3)cc(Cl)nc12 [Cpd 92, 2-[(2S)-2-amino-4-fluorobutyl]-5-chloro-3-methyl-N-[(thiophen-2-yl)methyl]thieno[3,2-b]pyridin-7-amine] |
| ≥ 6.30 | ≥ 6.30 |  |  | Cc1c(C[C@@H](N)CS(C)(=O)=O)sc2c(NCc3ccco3)cc(Cl)nc12 [Cpd 108, 2-[(2R)-2-amino-3-(methanesulfonyl)propyl]-5-chloro-N-[(furan-2-yl)methyl]-3-methylthieno[3,2-b]pyridin-7-amine] |
| ≥ 6.30 | ≥ 6.30 |  |  | C[C@H](N)C(F)c1sc2c(NCc3ccco3)cc(Cl)nc2c1Br (stereo partly drawn) [Cpd 154, 2-[(2S)-2-amino-1-fluoropropyl]-3-bromo-5-chloro-N-[(furan-2-yl)methyl]thieno[3,2-b]pyridin-7-amine] |

| SMILES | pIC50 [1] | pIC50 (ATXN3 pre-mRNA) | IC50 (average), total ATXN3 protein [1] | IC50, exon 4 skipping in ATXN3 pre-mRNA (ATXN3 pre-mRNA) |
| --- | --- | --- | --- | --- |
| CN[C@@H](C)Cc1sc2c(NCc3ccco3)cc(Cl)nc2c1C [Cpd 42, 5-chloro-N-[(furan-2-yl)methyl]-3-methyl-2-[(2S)-2-(methylamino)propyl]thieno[3,2-b]pyridin-7-amine] | ≥ 6.30 | 6.00 to 6.30 |  |  |
| Cc1c(C[C@H](C)N)sc2c(NCc3cccs3)cc(C#N)nc12 [Cpd 54, 2-[(2S)-2-aminopropyl]-3-methyl-7-{[(thiophen-2-yl)methyl]amino}thieno[3,2-b]pyridine-5-carbonitrile] | ≥ 6.30 | ≥ 6.30 |  |  |
